Results on 10 compounds are retold here after patent publication US20080262037A1, “Piperidine Derivatives for the Treatment of Chemokine Mediated Disease” (ASTRAZENECA AB, priority 2004, published 2008).

For the test, the target named is T1, human H1 receptor (Homo sapiens, UniProt P35367).
T1 construct: purchased Euroscreen SA, Brussels, Belgium ES-390-M; host or cells: CHO-K1 cells (membranes)
The experiment in a line: Histamine H1 receptor binding, competition displacement of [3H]-pyrilamine. The settings on record: displacement of 1 nM [3H]-pyrilamine; membranes from recombinant CHO-K1 cells expressing the human H1 receptor; 1 hour at room temperature; read-out: H1 pKi/[1328_S] (converted). Background: Displacement assays read how much labelled ligand stays bound in the presence of the test substance.

Counter-ions that a name gives are not always drawn.

T1 sequence (P35367 whole entry): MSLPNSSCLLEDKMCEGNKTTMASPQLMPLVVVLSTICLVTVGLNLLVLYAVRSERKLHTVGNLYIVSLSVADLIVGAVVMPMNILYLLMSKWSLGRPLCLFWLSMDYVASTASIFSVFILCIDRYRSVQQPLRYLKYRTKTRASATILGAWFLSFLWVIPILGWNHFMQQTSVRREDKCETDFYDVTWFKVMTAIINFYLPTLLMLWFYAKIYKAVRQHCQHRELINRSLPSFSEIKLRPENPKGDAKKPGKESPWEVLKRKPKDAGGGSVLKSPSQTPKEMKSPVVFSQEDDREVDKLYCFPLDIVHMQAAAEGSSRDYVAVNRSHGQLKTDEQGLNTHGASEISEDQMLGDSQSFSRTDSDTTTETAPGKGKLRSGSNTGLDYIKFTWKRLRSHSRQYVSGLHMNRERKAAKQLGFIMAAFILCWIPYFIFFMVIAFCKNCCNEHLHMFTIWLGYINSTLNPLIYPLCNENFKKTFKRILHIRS

As for `O=C(O)COc1c(Cl)cccc1N1CCC(CN2CCC(Oc3ccc(Cl)c(Cl)c3)CC2)CC1` [Example 40, (2-chloro-6-{4-[4-(3,4-dichloro-phenoxy)-piperidin-1-ylmethyl]-piperidin-1-yl}-phenoxy)-acetic acid], the Ki is 3.16 nM.
The figure for `O=C(O)COc1ccc(Cl)cc1N1CCC(CN2CCC(Oc3ccc(Cl)c(Cl)c3)CC2)CC1` [Example 39, (4-Chloro-2-{4-[4-(3,4-dichloro-phenoxy)-piperidin-1-ylmethyl]-piperidin-1-yl}-phenoxy)-acetic acid hydrochloride] is 2 nM.
As for `C[C@@H](Oc1cccc(N2CCC(CN3CCC(Oc4ccc(Cl)c(Cl)c4)CC3)CC2)c1)C(=O)O` [Example 30, (2R)-2-[3-(4-{[4-(3,4-Dichlorophenoxy)piperidin-1-yl]methyl}piperidin-1-yl)phenoxy]propanoic acid], the Ki was 12.6 nM.
`CC(C)(Oc1ccccc1N1CCC(CN2CCC(Oc3ccc(Cl)c(Cl)c3)CC2)CC1)C(=O)O` [Example 27, 2-[2-(4-{[4-(3,4-Dichlorophenoxy)piperidin-1-yl]methyl}piperidin-1-yl)phenoxy]-2-methylpropanoic acid]: the Ki is 31.6 nM.
In the case of `Cc1c(OC2CCN(CC3CCN(c4cccc(O[C@H](C)C(=O)O)c4)CC3)CC2)ccc(C#N)c1Cl` [Example 37, (2R)-2-[3-(4-{[4-(3-Chloro-4-cyano-2-methylphenoxy)piperidin-1-yl]methyl}piperidin-1-yl)phenoxy]propanoic acid] it was 398 nM; in that of `C[C@H](Oc1ccccc1N1CCC(CN2CCC(Oc3ccc(Cl)c(Cl)c3)CC2)CC1)C(=O)O` [Example 29, (2S)-2-[2-(4-{[4-(3,4-Dichlorophenoxy)piperidin-1-yl]methyl}piperidin-1-yl)phenoxy]propanoic acid], 12.6 nM.
In the case of `Cc1c(OC2CCN(CC3CCN(c4ccc(CC(=O)O)cc4)CC3)CC2)ccc(Cl)c1Cl` [Example 33, [4-(4-{[4-(3,4-Dichloro-2-methylphenoxy)piperidin-1-yl]methyl}piperidin-1-yl)phenyl]acetic acid] it was 12.6 nM.
`C[C@@H](Oc1ccccc1N1CCC(CN2CCC(Oc3ccc(Cl)c(Cl)c3)CC2)CC1)C(=O)O` [Example 28, (2R)-2-[2-(4-{[4-(3,4-Dichlorophenoxy)piperidin-1-yl]methyl}piperidin-1-yl)phenoxy]propanoic acid]: the Ki is 10 nM.
Turning to `Cc1c(OC2CCN(CC3CCN(c4cccc(O[C@@H](C)C(=O)O)c4)CC3)CC2)ccc(Cl)c1Cl` [Example 44, (2S)-2-[3-(4-{[4-(3,4-dichloro-2-methylphenoxy)piperidin-1-yl]methyl}piperidin-1-yl)phenoxy]propanoic acid], the Ki was 20 nM.
In the case of `COc1ccc(CC(=O)O)cc1N1CCC(CN2CCC(Oc3ccc(Cl)c(Cl)c3)CC2)CC1` [Example 23, [3-(4-{[4-(3,4-Dichlorophenoxy)piperidin-1-yl]methyl}piperidin-1-yl)-4-methoxyphenyl]acetic acid], the Ki is 12.6 nM.
